Measured values from PMC8147781, “Discovery of Pyrrolidine-2,3-diones as Novel Inhibitors of P. aeruginosa PBP3” (Antibiotics, 2021).
Values after ≈ are worked out from the molar mass of the structure shown. Values joined by “and” are separate entries in the source; they are usually repeats but may differ in a detail not shown here. Equal values may be shown once. Read-outs that look alike come from different tables or passages of the source.

Key:
[1] = test system: S. aureus 133; assay: MIC broth microdilution, S. aureus; type: cell-based; settings: Staphylococcus aureus, 133; Table S3
Description: (§1) MIC determination was performed via standard broth microdilution according to the Clinical & Laboratory Standards institute guidelines. Overnight colonies grown on BD-Columbia agar with 5% Sheep Blood (Becton Dickinson, Franklin Lakes, NJ, USA), were diluted in Mueller Hinton Broth 2 cation adjusted (MH+) medium (Thermo Fisher Scientific) to a concentration of 5 × 10^5 CFU/mL. Serial dilutions (1:2) of test compounds were incubated at 37 °C with 5 × 10^4 bacteria in a final volume of 100 μL. Sterile and growth controls in the presence of 1% DMSO and PMBN if the case, and the positive controls, aztreonam (AZT) and tigecycline (TIG) were included in the experiments (Table S4). The MICs were determined visually after 18 h at 37 °C and confirmed by the addition of 10% PrestoBlue (ThermoFisher Scientific) reagent according to the manufacture’s protocol. The fluorescence signal of PrestoBlue reagent was measured at Ex/Em: 550/595 nm after 30 min incubation at 37 °C using at a ClarioStar microplate reader (BMG Labtech). PrestoBlue reduction occurs in the presence of living cells and consequently turns red in colour and is highly fluorescent.

[2] = test system: B. subtilis 168; assay: MIC broth microdilution, B. subtilis; type: cell-based; settings: Bacillus subtilis, 168; Table S3
Description: as §1

[3] = test system: H9, cutaneous T lymphocyte cell line; assay: Cytotoxicity assay (PrestoBlue), H9; settings: CC50, 72 h
Description: (§2) We finally tested the cytotoxicity of the compounds against four eukaryotic cell lines (Table 2 and Table S5), NRK-52E, an epithelial kidney cell line of Rattus norvegicus; Hep G2, an human epithelial liver cell line; and two suspension cell lines: CCRF-CEM, a T lymphoblast; and H9, a cutaneous T lymphocyte cell line.
(§3) Cell lines stored at −120 °C were thawed to 37 °C and resuspended in 10 mL of medium pre-warmed to 37 °C. Cells were pelleted at 300× g for 10 min, and then resuspended in fresh medium, seeded in a T-75 culture flask, and placed in a CO2 incubator (37 °C with 5% CO2 tension). Once the cells reached approximately 70–80% confluency, they were then passaged regularly. The adherent cell lines NRK52E, HepG2 and Huh 7 were washed once with 10 mL DPBS and detached with Trypsin-EDTA for 5 to 7 min and resuspended in 15 mL of the appropriate medium. The suspension cell line CCRF-CEM were diluted and resuspended in fresh RPMI 1640 PAN medium. To calculate the cell density, the cell resuspensions were diluted 1:6 with DPBS. Equal volumes of cell suspension and Trypan Blue were mixed and gently loaded into a haemocytometer (INCYTO, 31056 Republic of Korea). In each experiment, cell concentrations were adjusted to reach a concentration of 2.5 × 10^3 cell/well for NRK52E, 5 × 10^3 cell/well for HepG2, 6.2 × 10^4 cell/well for CCRF-CEM and 3 × 10^3 for H9. The cells were incubated with decreasing concentration of compounds (1 µL in 96% DMSO) for 72 h at 37 °C with 5% CO2 tension. Cycloheximide, a cytotoxic compound that interferes with the translocation step in eukaryotic protein synthesis was used as a control for the experiments. The assay was carried out in flat-bottom, transparent 96-well plates. Cell viability was determined using the PrestoBlue reagent (Thermo Fisher Scientific, Waltham, MA, USA) according to the manufacture’s protocol. First, 10× PrestoBlue was added to each well to obtain a 1× solution, and incubated at 37 °C for 45 min. Then, fluorescence was measured at Ex/Em: 550/595 nm using a ClarioStar microplate reader (BMG Labtech). Cytotoxicity was determined as the percentage of the difference in absorbance of the untreated sample to the treated sample. CC50 was calculated using the values obtained in each concentration using the sigmoidal dose-response by Prism v.8. The media used in each cell line is detailed in Table S6.

[4] = biological target: T1, PBP3 of P. aeruginosa (PaPBP3) (Pseudomonas aeruginosa, UniProt G3XD46); assay: FP-Bocillin FL competition assay; type: binding; settings: 30 min preincubation before Bocillin FL, 37 °C; read-out: IC50 Determination with PaPBP3, FP-Bocillin FL Assay
T1 construct: P. aeruginosa PBP3 (amino acids 40 to 563); His-tag; made in house; host or cells: E. coli BL21 (DE3) Rosetta, plasmid pET41_PBP-3
Description: Bocillin FL is a fluorescent penicillin V derivate used as a competitor for PBP inhibitors.
Fluorescence polarisation (FP) experiments were carried out as described before. To determine the binding of Bocillin FL to PBP, 200 nM of ^PaPBP3 was incubated for 30 min with 100 nM of Bocillin FL (Thermo Fisher Scientific, Waltham, MA, USA). The fluorescence polarisation signal of free Bocillin FL was monitored in a Pherastar microplate reader (BMG Labtech, Ortenberg, Germany) in the polarisation mode with Ex/Em: 485/520 nm excitation and emission filters. Millipolarisation (mP) units were calculated using the MARS data analysis software v30.40.R2 (BMG Labtech, Ortenberg, Germany). All the experiments were done in Sorensen buffer at 37 °C using flat-bottom, black 96-well plates. […] Bocillin FL was diluted in Sorensen buffer and added to the reaction and directly measured for 30 min at 37 °C. The FP was continuously measured in the presence and absence of compound and enzyme. […] The estimated IC50 values were established by sigmoidal nonlinear regression, using Prims v.8 software.

[5] = test system: NRK-52E, epithelial kidney cell line; assay: Cytotoxicity assay (PrestoBlue), NRK52E; settings: CC50, 72 h
Description: as §2, §3

[6] = test system: S. pneumoniae; assay: MIC broth microdilution, S. pneumoniae; type: cell-based; settings: Streptococcus pneumoniae, read-out: MIC (µM) S. pneumoniae
Description: as §1

[7] = test system: Hep G2, epithelial liver cell line; assay: Cytotoxicity assay (PrestoBlue), HepG2; settings: CC50, 72 h
Description: as §2, §3

[8] = test system: T-lymphoblast CCRF-CEM cell line; assay: Cytotoxicity assay (PrestoBlue), CCRF-CEM; settings: for Cytotoxicity CCRF-CEM: CC50, 72 h; for cytotoxic potential at the tested cell lines: four cell lines: NRK-52E, Hep G2, CCRF-CEM, H9
Description: as §2, §3

[9] = test system: K. pneumoniae clinical isolate; assay: MIC broth microdilution, K. pneumoniae; type: cell-based; settings: Klebsiella pneumoniae; Table S3
Description: as §1

[10] = test system: A. baumannii ATCC15308; assay: MIC broth microdilution, A. baumannii; type: cell-based; settings: 10 µg/mL PMBN
Description: as §1

[11] = test system: E. coli Neumann; assay: MIC broth microdilution, E. coli; type: cell-based; settings: Escherichia coli; Table S3; read-out: MIC (µM) E. coli Neumann
Description: as §1

T1 sequence (G3XD46 40-563): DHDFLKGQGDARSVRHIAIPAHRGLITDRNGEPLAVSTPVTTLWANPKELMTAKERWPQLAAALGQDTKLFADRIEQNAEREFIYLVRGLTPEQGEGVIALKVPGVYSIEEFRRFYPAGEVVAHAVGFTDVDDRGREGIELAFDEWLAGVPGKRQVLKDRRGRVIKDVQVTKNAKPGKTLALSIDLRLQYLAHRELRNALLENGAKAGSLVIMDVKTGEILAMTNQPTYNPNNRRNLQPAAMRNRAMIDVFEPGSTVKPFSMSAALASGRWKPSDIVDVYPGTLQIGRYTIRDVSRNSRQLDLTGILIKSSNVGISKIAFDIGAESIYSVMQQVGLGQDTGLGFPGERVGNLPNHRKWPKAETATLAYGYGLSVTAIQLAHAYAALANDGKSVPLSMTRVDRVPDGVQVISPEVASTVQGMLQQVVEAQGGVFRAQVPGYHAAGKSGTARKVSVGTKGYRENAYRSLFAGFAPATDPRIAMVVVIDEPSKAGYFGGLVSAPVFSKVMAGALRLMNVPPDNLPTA

SMILES	MIC [1] [µM]	MIC [2] [µM]	Cytotoxicity effect (µM) T-lymphocyte H9 [3] [µM]	IC50 [4]	Cytotoxicity effect (µM) Epithelial kidney NRK52E [5] [µM]	MIC ([6]; Table S3) [µM]	Cytotoxicity effect (µM) Epithelial liver HepG2 [7] [µM]	Cytotoxicity CCRF-CEM [8] [µM]	MIC [9] [µM]	MIC (µM) A. baumanii ATCC15308 [10] [µM]	MIC [11] [µM]	MIC [6] [µM]	cytotoxic potential at the tested cell lines [8]
O=C(C1=C(O)C(=O)N(Cc2cccc(F)c2)C1c1ccc(Cl)cc1)c1ccc(Br)cc1 (stereo not drawn) [Compound 1]	> 100	> 100	> 100	7 ± 3 µM	> 100	25 (≈ 12.5 µg/mL)	> 100	>100	> 100	> 100	> 100	–	–
O=C1NC(c2ccc(Cl)cc2)C(C(=O)c2ccc(Br)cc2)=C1O (stereo not drawn) [Compound 32, 4-(4-bromobenzoyl)-5-(4-chlorophenyl)-3-hydroxy-1,5-dihydropyrrol-2-one]	> 100	100 (≈ 39.3 µg/mL)	> 100	> 100 µM	98 ± 5	> 100	> 100	94 ± 6	> 100	> 100	> 100	–	–
CCN1C(=O)C(O)=C(C(=O)c2ccc(Br)cc2)C1c1ccc(Cl)cc1 (stereo not drawn) [Compound 33]	> 100	> 100	> 100	> 100 µM	84 ± 5	50 (≈ 21 µg/mL)	> 100	58 ± 6	> 100	> 100	> 100	–	–
O=C(C1=C(O)C(=O)N(Cc2cc3ccccc3[nH]2)C1c1ccc(Cl)cc1)c1ccc(Br)cc1 (stereo not drawn) [Compound 34, 4-(4-bromobenzoyl)-5-(4-chlorophenyl)-3-hydroxy-1-(1H-indol-2-ylmethyl)-5H-pyrrol-2-one]	6.25 (≈ 3.26 µg/mL)	25 (≈ 13 µg/mL)	> 100	4 ± 4 µM	> 100	–	> 100	>100	> 100	> 100	> 100	12.5 (≈ 6.52 µg/mL)	–
O=C(C1=C(O)C(=O)N(Cc2cc3cc(Cl)ccc3[nH]2)C1c1ccc(Cl)cc1)c1ccc(Br)cc1 (stereo not drawn) [Compound 35]	3.13 (≈ 1.74 µg/mL)	6.25 (≈ 3.48 µg/mL)	96 ± 7	2 µM and 0.6 µM	53 ± 5	6.25 (≈ 3.48 µg/mL)	> 100	> 100	> 100	> 100	> 100	–	–
O=C(C1=C(O)C(=O)N(Cc2cc3cnccc3[nH]2)C1c1ccc(Cl)cc1)c1ccc(Br)cc1 (stereo not drawn) [Compound 36]	> 100	> 100	48 ± 2	> 100 µM	58 ± 3	> 100	1 ± 2	–	> 100	> 100	> 100	–	high cytotoxic potential
O=C(C1=C(O)C(=O)N(CCc2cc3ccccc3[nH]2)C1c1ccc(Cl)cc1)c1ccc(Br)cc1 (stereo not drawn) [Compound 37]	6.25 (≈ 3.35 µg/mL)	3.13 (≈ 1.68 µg/mL)	19 ± 6	17 ± 3 µM	9 ± 12	50 (≈ 26.8 µg/mL)	20 ± 4	8 ± 6	> 100	> 100	> 100	–	high cytotoxic potential
O=C(C1=C(O)C(=O)N(Cc2nc3ccccc3[nH]2)C1c1ccc(Cl)cc1)c1ccc(Br)cc1 (stereo not drawn) [Compound 38]	> 100	> 100	> 100	117 ± 4 µM	> 100	25 (≈ 13.1 µg/mL)	> 100	>100	> 100	> 100	> 100	–	–
CCNC1=C(C(=O)c2ccc(Br)cc2)C(c2ccc(Cl)cc2)N(Cc2cccc(F)c2)C1=O (stereo not drawn) [Compound 43, 4-(4-bromobenzoyl)-5-(4-chlorophenyl)-3-(ethylamino)-1-[(3-fluorophenyl)methyl]-5H-pyrrol-2-one]	> 100	> 100	> 100	> 100 µM	73 ± 9.2	> 100	> 100	> 100	–	> 100	> 100	–	–
